Patent US11136297B2, “Compositions and methods for treating cancer” (THE REGENTS OF THE UNIVERSITY OF CALIFORNIA, priority 2016, dated 2021)
Entries after “also recorded” stand apart in the source; their conditions may differ.

Tests used:
1-169 K-Ras(M72C) GDP = molecular target: T1, 1-169 K-Ras(M72C) GDP (Homo sapiens, UniProt P01116, M72C); assay: Disulfide tethering screen, percent modification by intact protein mass spectrometry; format: binding; details: screening βME 1 mM
T1 construct: Untagged recombinant 1-169 K-Ras(M72C) GDP; His6 (cleaved yes); made in house; host or cells: Escherichia coli BL21(DE3)
From the text: In some embodiments, a library of disulfide compounds may be screened against a cysteine-containing protein in the presence of a reducing agent such as β-mercaptoethanol (BME). Compounds with complementary binding contacts with a region of the protein near the cysteine may shift the disulfide exchange equilibrium away from BME modification of the cysteine thiol and enhance the ratio of the hit ligand bound to the cysteine. The resulting mass change of the protein can be readily detected by mass spectrometry, and the percentage of modified protein can be used as a measure of potency. Compounds which exchange with the cysteine without conferring affinity should exchange with reducing agent equally well and will not shift the equilibrium toward protein modification. The potency of various compounds at a given concentration of BME may be compared by calculating the dose-response 50 (DR50), which is the concentration of compound at which the protein becomes 50% modified.
A tethering library of 960 disulfides were screened against 1-169 K-Ras(M72C) GDP using intact protein mass spectrometry to monitor percent modification (See Methods, and FIG. 37). […] To better prioritize tethering fragments, a βME50 value (the concentration of βME needed to reduce disulfide fragment modification to 50%) was determined for each compound. […]

[1] = molecular target: T2, H-Ras(M72C) GDP binding to SOScat (Homo sapiens, UniProt P01112, M72C); assay: SOScat pull-down of H-Ras(M72C) GDP; details: SOScat pull-down of H-Ras(M72C) GDP at various concentrations of H-Ras
T2 construct: and H-Ras (residues 1-166) were transformed into Escherichia coli; His6; made in house; host or cells: Escherichia coli BL21(DE3)

[2] = molecular target: T3, H-Ras(M72C) GppNHp binding to Raf-1-RBD (Homo sapiens, UniProt P01112, M72C); assay: Raf-1-RBD pull-down of labeled H-Ras(M72C) GppNHp; details: H-Ras(M72C) GppNHp pre-labeled with compound; various concentrations of H-Ras
T3 construct: and H-Ras (residues 1-166) were transformed into Escherichia coli; His6; made in house; host or cells: Escherichia coli BL21(DE3)
Procedure: FIGS. 29A-29D. […] FIG. 29D: Reconstruction of Ras cycle is achieved by inducing nucleotide exchange of 100 nM Ras by various concentrations of SOS^cat for either 1 or 2 hours and subsequent pull-down by Raf-1-RBD.
FIGS. 33A-33D. […] In FIG. 33B) through FIG. 33D), normalized pull-down signals are shown below the blot. S. E. M for each signal, number of replicates, and […] for each comparative Standard T-Test are summarized herein (see Tables 33B, 33C, and 33D). […] Comparative statistics were done for normalized pull-down signals between protein constructs of the same condition (i.e. in FIG. 33B) and FIG. 33C), column 1 for unlabeled and 1 for labeled protein, 2 for unlabeled and 2 for labeled, and so on were statistically compared, and in FIG. 33D) only the +SOS^cat and +GppNHp lanes were compared across protein constructs). FIG. 33A) Cartoon representation of pull down protocol. […] Reported values are quantified pull-down signals normalized to input. FIG. 33B) Cartoon representation of pull down protocol. […] FIG. 33C) Cartoon representation of pull down protocol. […] FIG. 33D) Cartoon representation of pull down protocol. Ras activation is achieved by catalyzing nucleotide exchange by SOS^cat and indirectly reading out activated Ras by subsequent pull down by Raf-1-RBD.

- percent modification (1-169 K-Ras(M72C) GDP): 69.7%
- SOS binding [1]: inhibits SOS binding
SMILES: COc1ccc(-n2ncc(C(=O)NCCCSSCCN(C)C)c2C(F)(F)F)cc1 [Compound 2C07, N-(3-((2-(dimethylamino)ethyl)disulfanyl)propyl)-1-(4-methoxyphenyl)-5-(trifluoromethyl)-1H-pyrazole-4-carboxamide]
- Raf-1-RBD binding [2]: does not inhibit Raf binding; also recorded: permits Raf-1-RBD binding
